Results reported in US20240407315A1, “PLANT DISEASE […] METHOD, PLANT DISEASE […] DEVICE, AND PLANT DISEASE […] AGENT” (TOHOKU UNIVERSITY, priority 2021, published 2024).

Tests used:
[1] = test system: PDF1.2, ORA59, PAD3, CYP71A12, NIT2, and WRKY26; assay: qRT-PCR time course of marker gene expression relative to ACT2 gene; format: in vivo, Arabidopsis thaliana; conditions: single 20 seconds exposure from 5 cm
Method: Subsequently, the expression of each of the selected genes was analyzed by qRT-PCR. In the qRT-PCR, Arabidopsis thaliana at 5 week of seeding was exposed to dinitrogen pentoxide from a distance of 5 cm for 20 seconds. The dinitrogen pentoxide exposure was conducted only once. The whole above-ground part was sampled 1, 3, 6, 12, 24, and 48 hours after the exposure, from which the total RNA was extracted and then subjected to qRT-PCR. Using ACT2 gene as a control for endogenous genes, an expression level of each gene was determined as a value relative to the ACT2 gene expression level (Relative expression to ACT2 gene).
For comparison, time-dependent changes in the expression levels of each gene in Arabidopsis thaliana exposed to dry air under the same condition were also determined, and the results are presented in FIG. 5. For the experiment, three independent individuals were used, and the mean values and standard deviations of the three individuals are presented in FIG. 5. The same experiment was conducted twice independently, and the same results were obtained.

[2] = test system: cucumber mosaic virus (CMV) Macula lutea strain; assay: Suppression of viral growth: ELISA of virus coat protein in inoculated leaves; format: in vivo; conditions: Arabidopsis thaliana, 20 seconds once a day for 3 days, about 200 ppm or lower; inoculated 24 hours after last exposure; measured 2 days after inoculation
From the text: A plant was exposed to dinitrogen pentoxide using the plant disease resistance inducing device 10 illustrated in FIG. 1, and subjected to an experiment for examining an effect of suppressing viral growth. In the experiment, Arabidopsis thaliana at 5 week of seeding was exposed to dinitrogen pentoxide once a day for 3 days. In each exposure, Arabidopsis thaliana was exposed to dinitrogen pentoxide from a distance of 5 cm for 20 seconds. A concentration of dinitrogen pentoxide in the gas for the exposure was set to about 200 ppm or lower. Twenty-four hours after the last exposure, leaves that had fully developed were inoculated with a cucumber mosaic virus (CMV) Macula lutea strain by a friction inoculation method. Two days after the CMV inoculation, viral loads in the inoculated leaves were quantitatively measured by Enzyme-Linked Immuno Sorbent Assay (ELISA) method using an anti-CMV coat protein antibody.
For comparison, virus loads of Arabidopsis thaliana exposed to dry air and inoculated with CMV under the same condition, and Arabidopsis thaliana exposed to dry air and not inoculated with CMV (Mock) under the same condition were also quantitatively measured, and the results are presented in FIG. 6. For the experiment, six independent individuals were used, and the mean values and standard deviations of the six individuals are presented in FIG. 6. […]

[3] = test system: PDF1.2, ORA59, PAD3, CYP71A12, NIT2, and WRKY26; assay: RNA sequencing (RNA-seq) gene expression analysis after gas exposure; format: in vivo, Arabidopsis thaliana
Method: A plant was exposed to dinitrogen pentoxide using the plant disease resistance inducing device 10 illustrated in FIG. 1, and a gene expression was analyzed by RNA sequencing (RNA-seq) and quantitative real-time PCR (qRT-PCR). In the RNA-seq analysis, Arabidopsis thaliana at 5 week of seeding was exposed to dinitrogen pentoxide once a day for 3 days. In each exposure, Arabidopsis thaliana was exposed to dinitrogen pentoxide from a distance of 5 cm for 20 seconds. A concentration of dinitrogen pentoxide in the gas for the exposure was set to about 200 ppm or lower. Twenty-four hours after the last exposure, leaves that had fully developed were collected, from which the total RNA was extracted, followed by RNA-seq analysis. For comparison, as a control plot, a leaf exposed to dry air under the same condition was also subjected to the RNA-seq analysis.
Genes with expression levels not less than twice as high as that of the control plot, induced by the dinitrogen pentoxide exposure, and genes with reduced expression levels not more than half as high as that of the control plot were extracted. As a result, 1304 genes with twice or more of induced expression levels, and 1209 genes with expression levels reduced to half or less were found.
Based on the result of the RNA-seq, six genes: PDF1.2, ORA59, PAD3, CYP71A12, NIT2, and WRKY26, were selected as candidate marker genes for the dinitrogen pentoxide exposure. Herein, PDF1.2 is an antimicrobial peptide gene and is often used as a marker gene for jasmonic acid and ethylene. ORA59 is a gene related to regulation of PDF1.2 expression. PAD3 is a gene related to biosynthesis of an antimicrobial substance camalexin, which is synthesized and induced by jasmonic acid. CYP71A12 is a gene related to a tryptophan metabolism at an upstream of PAD3. NIT2 is a gene related to biosynthesis of auxin that is another plant hormone derived from tryptophan. WRKY26 is a gene which, as is known, functionally overlaps with a transcription factor WRKY33 that regulates jasmonic acid signals.

Arabidopsis thaliana = assay: Observation of leaf damage after gas exposure; format: in vivo; conditions: immediately after exposure and the next day
[4] = test system: Ca^2+ signals (calcium ion response); assay: Live GFP fluorescence imaging of Ca^2+ signals in GCaMP-expressing plants after gas exposure; format: in vivo, Arabidopsis thaliana; conditions: about 200 ppm or lower, 10 seconds
From the text: An experiment was implemented, in which a plant was exposed to dinitrogen pentoxide to confirm induction of Ca^2+ signals (calcium ion response) as information of injuries similar to insect damages or physical injuries, using the plant disease resistance inducing device 10 illustrated in FIG. 1.
First, Ca^2+ signals that had appeared by exposing the whole body of Arabidopsis thaliana to dinitrogen pentoxide were observed. In the experiment, the concentration of dinitrogen pentoxide in the gas for the exposure was set to about 200 ppm or lower, and the exposure time was set to 10 seconds. For comparison, Ca^2+ signals that had appeared by exposing the whole body of Arabidopsis thaliana to dry air were also observed under the same condition. FIG. 2 presents states of Arabidopsis thaliana before the exposure, and states of the Ca^2+ signals 60 seconds after the termination of the exposure.
Next, Ca^2+ signals that had appeared by exposing one leaf of Arabidopsis thaliana to dinitrogen pentoxide were observed. In the experiment, only one leaf of Arabidopsis thaliana (leaf surrounded by dotted line in FIG. 3(a)) was exposed to dinitrogen pentoxide. The concentration of dinitrogen pentoxide in the gas for the exposure was set to about 200 ppm or lower, and the exposure time was set to 10 seconds.

[5] = 20 seconds once a day for 3 days, about 200 ppm or lower, leaves 24 hours after last exposure

SMILES	time after exposure from which ODR59 expression was induced [1] [h]	time after exposure from which PDF1.2 expression was induced [1] [h]	time of peak of transiently induced NIT2 expression [1] [h]	time until which high ODR59 expression level was maintained [1] [h]	time until which high PDF1.2 expression level was maintained [1]	CMV growth (accumulation of virus coat protein) compared to dry air exposure [2]	gene ontology analysis result ([3]; 20 seconds once a day for 3 days, about 200 ppm or lower)	number of genes with expression levels reduced to half or less vs control plot [3, 5] [genes]	number of genes with twice or more of induced expression levels vs control plot [3, 5] [genes]	At-N2O5-_TPM ([3]; gene CYP71A12, control 0.000000) [TPM]	At-N2O5-_TPM ([3]; gene NIT2, control 0.000000) [TPM]	At-N2O5-_TPM ([3]; gene ORA59, control 0.074135) [TPM]	At-N2O5-_TPM ([3]; gene PAD3, control 0.312642) [TPM]	At-N2O5-_TPM ([3]; gene WRKY26, control 0.035706) [TPM]	state of leaves after exposure (Arabidopsis thaliana)	time to activation of the Ca^2+ signals in the leaf directly exposed ([4]; one leaf exposed)	spread of Ca^2+ signals after exposure of one leaf ([4]; one leaf exposed, observed up to 6 minutes)	generation of Ca^2+ signals over the plant body ([4]; whole body exposed)	Ca^2+ signals after whole-body exposure ([4]; whole body exposed, observed 60 seconds after exposure, dry air gave no signals)
O=[N+]([O-])O[N+](=O)[O-] [dinitrogen pentoxide]	1	6	12	48	at least 48 hours	significantly suppressed	jasmonic acid signals were activated	1209	1304	0.797	1.917	2.341	1.293	0.7565	not to curl up but to grow without withering	about 20 seconds	spread to all leaves in the whole body through sieve tubes	slowly generated over the whole body	Ca^2+ signals were observed
O=[O+][O-] [ozone, reference compound]															curl up immediately after the ozone exposure and wither the next day				
